The assay concerns V79. The assay can be described thus: Cytotoxic effect of compound was measured in lipid V79cell formulation. Format: functional, cell-based. The conditions noted are these: Cricetulus griseus.
`CCCCCCCCCCCCOCC(CN)OCCCCCCCCCCCC` (stereo not given): the 50% inhibitory concentration (IC50) (commonly the concentration that gives 50% inhibition) was 75 µM.

As to `CCCCCCCCCCCCCCCCCCOCC(CN)OCCCCCCCCCCCC` (stereo not given), the IC50 was 76 µM. This IC50 and that of the molecule before are within 1.5-fold of each other.

As for `CCCCCCCCCCCCCCCCCCOCC(CN)OCCCCCCCCCCCCCCCCCC` (stereo not given), inhibition was half-maximal at 67 µM (IC50).

The molecule `CCCCCCCCCCCCOCC(CNC(=O)[C@@H](N)CCCCN)OCCCCCCCCCCCC` (stereo not given in full) showed an IC50 of 34 µM.

The molecule `CCCCCCCCCCCCOCC(CNC(=O)[C@@H](N)CCCN=C(N)N)OCCCCCCCCCCCC` (stereo not given in full) showed an IC50 of 20 µM.
